In ChEMBL document CHEMBL5209588, “Membrane potential based assay for SLC6A9 using HEK-293 SLC6A9 OE cells” (2022):

Molecular target: T1, Sodium- and chloride-dependent glycine transporter 1 (Homo sapiens, UniProt P48067)
T1 sequence (P48067 whole entry): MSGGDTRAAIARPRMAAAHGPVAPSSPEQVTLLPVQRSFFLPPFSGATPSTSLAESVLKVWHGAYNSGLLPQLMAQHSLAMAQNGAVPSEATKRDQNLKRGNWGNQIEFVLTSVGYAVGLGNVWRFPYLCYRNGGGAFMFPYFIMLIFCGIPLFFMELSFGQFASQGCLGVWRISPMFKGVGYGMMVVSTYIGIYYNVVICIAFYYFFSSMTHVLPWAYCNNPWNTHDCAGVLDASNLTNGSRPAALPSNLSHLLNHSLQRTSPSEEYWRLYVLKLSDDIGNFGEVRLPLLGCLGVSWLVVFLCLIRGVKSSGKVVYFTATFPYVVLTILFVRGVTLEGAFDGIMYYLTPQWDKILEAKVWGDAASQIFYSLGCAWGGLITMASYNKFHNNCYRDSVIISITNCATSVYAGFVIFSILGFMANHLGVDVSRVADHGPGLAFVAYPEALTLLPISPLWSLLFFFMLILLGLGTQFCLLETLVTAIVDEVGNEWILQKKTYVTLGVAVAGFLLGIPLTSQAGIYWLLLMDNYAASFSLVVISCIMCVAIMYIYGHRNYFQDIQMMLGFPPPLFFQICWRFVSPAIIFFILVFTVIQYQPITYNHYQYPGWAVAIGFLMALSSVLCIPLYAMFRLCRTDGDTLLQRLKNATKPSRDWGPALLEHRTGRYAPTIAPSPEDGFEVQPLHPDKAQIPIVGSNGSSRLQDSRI
Description: Substrate uptake and inhibition of the Glycine Transporter-1 (GlyT1, SLC6A9) as assessed by the fluorescent FLIPR membrane potential dye in HEK-293 JumpIN-SLC6A9 cells (PubChem AID: 1794809)

How did the EC50 turn out when `NCC(=O)O` [GLYCINE] was run?
The EC50 was 106 µM.
